Test results from patent US20240294499A1, “TARGETED PROTEIN DEGRADATION USING BIFUNCTIONAL COMPOUNDS THAT BIND UBIQUITIN LIGASE AND TARGET MCL-1 PROTEIN” (Captor Therapeutics S.A., priority 2021, published 2024).

How the values were obtained:
OPM-2 cells = assay: Cell viability assay (CellTiter-Glo), OPM-2; assay type: cell-based; conditions: Homo sapiens, 24 hours incubation, 1% FBS, read-out: Average pIC50 by molecule OPM-2 (converted)
Text: The effect of various compounds of the invention on the viability of OPM-2, MV-4-11 and ARH-77 cell lines was investigated, using the CTG protocol described below.
OPM-2 and MV-4-11 cell lines are derived from multiple myeloma and acute myeloid leukaemia, respectively. Both cell lines are described in the literature as MCL-1 dependent lines, as opposed to lymphoblast-like ARH-77 cell line, which is described as independent of MCL-1 (Tron A E et al. Nat Commun. 2018; 9: 5341; Caenepeel S et al. Cancer Discov. 2018 December; 8(12):1582-1597).
Cells (OPM-2, MV-4-11 or ARH-77) were seeded on […] in a growth medium with FBS reduced to 1%. Next, compound stocks were pre-diluted in DMSO and added directly to the cells growth medium (final DMSO concentration: 0.5%). Compound concentrations used in this assay: 1/3 dilutions starting at 30 uM (9 to 12 points).
After 24 hours of incubation, cell viability was evaluated using CellTiter-Glo Luminescent Cell Viability Assay (Promega, cat #G7572). Luminescence signal was measured using a CLARIOstar Plus Multi-Mode Microplate Reader (574-590 nm).
Results were normalized to DMSO control.

MCL-1 protein = MCL-1 protein (Homo sapiens, UniProt Q07820); assay: OPM-2 cells: MCL-1 protein degradation, Simple Western; assay type: cell-based; set-up: endogenous in cells; host or cells: OPM-2; conditions: OPM-2 cell line, 6 h treatment, 100 nM compound, vs DMSO
Text: The effect of various compounds of the invention and the reference compounds on MCL-1protein degradation in the OPM-2 cell line was investigated, using the degradation assay protocol below.
OPM-2 cells were maintained in RPMI-1640 medium, supplemented with penicillin/streptomycin and 10% Fetal Bovine Serum (FBS). During the treatment, FBS concentration was reduced to 1%.
Compound stocks were pre-diluted in DMSO and added directly to the cells growth medium (final DMSO concentration: 0.5%).
OPM-2 cells were collected, centrifuged (250 rcf, 5 min), resuspended in a growth medium containing 1% FBS and counted. The cell suspension was then adjusted to 1×10^6 cell/ml using a growth medium containing 1% FBS. Afterwards, 0.5×10^6 cells were seeded on 24-well plates in 0.5 mL of medium per well. Immediately after seeding cells, compounds in appropriate concentrations were added to the cell culture medium.
Following the treatment with the compounds, cells were collected from the plates and suspended in a lysis buffer (2% SDS, 50 mM Tris, pH 8.0, 100 U/ml Pierce Universal Nuclease for Cell Lysis, cOmplete EDTA-free Protease Inhibitor Cocktail) and incubated on ice for 45 min.
The following steps, including sample loading, protein separation, immunoprobing or labelling, washes and detection analysis was performed using Jess from ProteinSimple, an automatic system for analyzing protein levels in cell lysates (12-230 kDa Jess or Wes separation module 8×25 capillaries, protein normalization assay, no. SM-PN01-1). The Protein of Interest was detected using MCL-1 (D35A5) Rabbit monoclonal antibody (Cell Signaling, #5453, LOT: 4). Antibody was diluted in a ratio of 1:100 in Antibody diluent.
[%] of protein reduction is calculated in comparison to the cells treated with DMSO, which stand for 0%.
The results for the 6 h treatment with 100 nM compounds are shown in Table 9, using the following labels: • <20% for 0-19% of MCL-1 protein reduction, • ≥20% for 20-39% of MCL-1 protein reduction, • ≥40% for 40-100% of MCL-1 protein reduction.

[1] = target: [MCL-1]-[compound of formula (I)]-[CRBN/DDB1] complex (Homo sapiens, UniProt Q07820+Q96SW2); assay: HTRF ternary complex assay; assay type: binding; conditions: ternary complex formation; read-out: HTRF ternary complex Average pEC50 by molecule (converted)
In short: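 hMcl-1 and CRBN (mix at 48 nM and 105.6 nM) with Streptavidin-Eu cryptate and anti-6×His-d2 in PPI Europium buffer with 2 mM DTT; compounds in dose-response, 0.5% DMSO. Incubated 180 min at 25° C, TR-FRET 665/620 read. Bell-shaped curve fitted by Gaussian; EC50 reported.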

DMS 114 cells = assay: Cell viability assay (CellTiter-Glo), DMS 114; assay type: cell-based; conditions: 72 hours incubation, 10% FBS
Text: The effect of various compounds of the invention on the viability of DMS 114 cell line was investigated, using the CTG protocol described below.
DMS 114 cell line is derived from small-cell lung cancer, which is described in the literature as MCL-1 dependent lines [Yasuda Y et al. Cell Death & Disease 2020; 11: 177].
DMS 114 cells were detached with trypsin and then resuspended in growth medium containing 10% FBS and counted. Cell suspension was then adjusted to 5×10^4 cells/ml using growth medium containing 10% FBS. Afterwards, […] were seeded on 384-well plates (50 μl). Plates were then placed in the incubator overnight until treated. Next day, compounds were added using ECHO 555 liquid handler. Compound concentrations used in this assay: 1/3 dilutions starting at 30 uM (9 to 12 points).
After 72 hours of incubation, cell viability was evaluated using CellTiter-Glo Luminescent Cell Viability Assay (Promega, cat #G7572). Luminescence signal was measured using a CLARIOstar Plus Multi-Mode Microplate Reader (574-590 nm).

ARH-77 cells = assay: Cell viability assay (CellTiter-Glo), ARH-77; assay type: cell-based; conditions: Homo sapiens, ARH-77, 24 hours incubation, 1% FBS, read-out: Average pIC50 by molecule ARH-77 (converted)
In short: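 OPM-2, MV-4-11 and ARH-77 cells were grown in medium with 1% FBS and treated with compound in 1/3 dilutions from 30 uM (9–12 points, 0.5% DMSO). Viability was read by CellTiter-Glo luminescence after 24 hours and normalized to DMSO control.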

MCL-1 protein, sequence (Q07820 whole entry): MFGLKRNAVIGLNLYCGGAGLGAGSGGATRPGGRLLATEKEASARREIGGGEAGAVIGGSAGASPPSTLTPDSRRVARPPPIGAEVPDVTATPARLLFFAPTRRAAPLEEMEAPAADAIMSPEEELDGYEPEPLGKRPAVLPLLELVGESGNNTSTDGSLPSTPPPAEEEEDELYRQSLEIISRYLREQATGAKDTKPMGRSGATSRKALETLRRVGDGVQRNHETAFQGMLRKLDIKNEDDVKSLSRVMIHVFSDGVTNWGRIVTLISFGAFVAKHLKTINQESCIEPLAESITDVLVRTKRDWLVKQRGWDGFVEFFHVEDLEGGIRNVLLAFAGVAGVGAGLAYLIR
[MCL-1]-[compound of formula (I)]-[CRBN/DDB1] complex, sequence (Q07820 whole entry): as above
[MCL-1]-[compound of formula (I)]-[CRBN/DDB1] complex, sequence (Q96SW2 whole entry): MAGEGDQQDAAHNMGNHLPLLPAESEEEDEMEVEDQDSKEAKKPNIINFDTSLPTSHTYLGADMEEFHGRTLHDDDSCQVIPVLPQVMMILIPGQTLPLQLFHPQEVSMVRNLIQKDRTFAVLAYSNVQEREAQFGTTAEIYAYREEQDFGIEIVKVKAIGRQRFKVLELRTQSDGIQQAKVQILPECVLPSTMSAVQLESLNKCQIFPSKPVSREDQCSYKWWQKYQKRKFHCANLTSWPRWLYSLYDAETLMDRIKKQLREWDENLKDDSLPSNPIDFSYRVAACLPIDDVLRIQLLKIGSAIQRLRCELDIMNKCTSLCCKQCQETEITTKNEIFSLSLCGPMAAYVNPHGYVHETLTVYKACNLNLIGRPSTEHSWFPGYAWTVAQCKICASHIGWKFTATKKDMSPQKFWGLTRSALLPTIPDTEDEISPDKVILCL
[MCL-1]-[compound of formula (I)]-[CRBN/DDB1] complex, sequence (Q16531 whole entry partner): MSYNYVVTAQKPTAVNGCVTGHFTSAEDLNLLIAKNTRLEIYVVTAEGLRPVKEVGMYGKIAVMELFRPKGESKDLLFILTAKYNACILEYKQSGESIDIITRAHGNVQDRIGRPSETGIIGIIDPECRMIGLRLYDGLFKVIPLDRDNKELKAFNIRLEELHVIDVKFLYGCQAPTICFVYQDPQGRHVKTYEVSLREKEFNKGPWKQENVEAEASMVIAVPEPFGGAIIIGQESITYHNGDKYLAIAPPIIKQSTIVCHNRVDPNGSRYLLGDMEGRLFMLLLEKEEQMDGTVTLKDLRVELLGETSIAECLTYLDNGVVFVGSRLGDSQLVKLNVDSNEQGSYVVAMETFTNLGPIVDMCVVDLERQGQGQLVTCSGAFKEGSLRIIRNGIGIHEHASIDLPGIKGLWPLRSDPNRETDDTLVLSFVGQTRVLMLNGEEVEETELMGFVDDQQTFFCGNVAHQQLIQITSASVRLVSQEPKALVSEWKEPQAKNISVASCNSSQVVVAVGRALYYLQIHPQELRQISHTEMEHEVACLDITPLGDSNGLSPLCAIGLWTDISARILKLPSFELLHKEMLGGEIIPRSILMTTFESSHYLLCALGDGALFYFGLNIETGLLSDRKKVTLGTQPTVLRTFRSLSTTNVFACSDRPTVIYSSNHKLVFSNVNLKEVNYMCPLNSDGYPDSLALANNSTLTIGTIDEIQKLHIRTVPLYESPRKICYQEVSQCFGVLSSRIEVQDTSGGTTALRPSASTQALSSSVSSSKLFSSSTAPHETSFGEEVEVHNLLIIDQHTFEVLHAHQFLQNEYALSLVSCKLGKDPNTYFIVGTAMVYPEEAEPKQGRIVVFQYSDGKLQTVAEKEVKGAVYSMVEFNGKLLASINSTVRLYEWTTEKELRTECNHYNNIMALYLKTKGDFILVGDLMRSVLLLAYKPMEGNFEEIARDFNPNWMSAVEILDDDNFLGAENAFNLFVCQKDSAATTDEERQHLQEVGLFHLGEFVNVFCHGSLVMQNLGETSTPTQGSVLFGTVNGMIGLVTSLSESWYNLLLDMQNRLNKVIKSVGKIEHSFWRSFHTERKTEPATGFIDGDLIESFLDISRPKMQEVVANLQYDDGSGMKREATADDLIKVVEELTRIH

| Structure (SMILES) | Simple Western, % of protein reduction (MCL-1 protein) | EC50 [1] | IC50 (OPM-2 cells) | IC50 (ARH-77 cells) | also measured |
| --- | --- | --- | --- | --- | --- |
| Cc1nn2c(c1-c1c(Cl)ccc3c(CCCOc4cccc5cc(F)ccc45)c(C(=O)O)n(CCN4CCN(C(=O)COc5cccc6c5CN(C5CCC(=O)NC5=O)C6=O)CC4)c13)COCC2 (stereo not shown) [Compound 346, 6-Chloro-1-(2-(4-(2-((2-(2,6-dioxopiperidin-3-yl)-1-oxoisoindolin-4-yl)oxy)acetyl)piperazin-1-yl)ethyl)-3-(3-((6-fluoronaphthalen-1-yl)oxy)propyl)-7-(2-methyl-6,7-dihydro-4H-pyrazolo[5,1-c][1,4]oxazin-3-yl)-1H-indole-2-carboxylic acid] | – | – | – | > 10000 nM | IC50 (DMS 114 cells; Homo sapiens, DMS-114, 72 h, read-out: Average pIC50 by molecule DMS 114 (converted)): ≤ 3160 nM |
| Cc1nn(C)c(C)c1-c1c(Cl)ccc2c(CCCOc3cccc4ccccc34)c(C(=O)O)n(CCN3CCN(C(=O)COc4cccc5c4C(=O)N(C4CCC(=O)NC4=O)C5=O)CC3)c12 (stereo not shown) [Compound 204, 6-chloro-1-(2-(4-(2-((2-(2,6-dioxopiperidin-3-yl)-1,3-dioxoisoindolin-4-yl)oxy)acetyl)piperazin-1-yl)ethyl)-3-(3-(naphthalen-1-yloxy)propyl)-7-(1,3,5-trimethyl-1H-pyrazol-4-yl)-1H-indole-2-carboxylic acid] | ≥40% | – | ≤ 1000 nM | – | – |

Second part, led by results:

| Simple Western, % of protein reduction (MCL-1 protein) | EC50 [1] | Structure (SMILES) | IC50 (OPM-2 cells) | IC50 (ARH-77 cells) | also measured |
| --- | --- | --- | --- | --- | --- |
| ≥20% | – | Cc1nn(C)c(C)c1-c1c(F)ccc2c(CCCOc3cccc4cc(F)ccc34)c(C(=O)O)n(CCN3CCN(C(=O)COc4cccc5c4C(=O)N(C4CCC(=O)NC4=O)C5=O)CC3)c12 (stereo not shown) [Compound 215, 1-{2-[4-(2-{[2-(2,6-dioxopiperidin-3-yl)-1,3-dioxo-2,3-dihydro-1H-isoindol-4-yl]oxy}acetyl)piperazin-1-yl]ethyl}-6-fluoro-3-{3-[(6-fluoronaphthalen-1-yl)oxy]propyl}-7-(1,3,5-trimethyl-1H-pyrazol-4-yl)-1H-indole-2-carboxylic acid] | ≤ 1000 nM | – | – |
| – | < 100 nM | Cc1nn(C)c(C)c1-c1c(Cl)ccc2c(CCCOc3cccc4cc(F)ccc34)c(C(=O)O)n(CCN3CCN(C(=O)COc4cccc5c4CN(C4CCC(=O)NC4=O)C5=O)CC3)c12 (stereo not shown) [Compound 220, 6-chloro-1-{2-[4-(2-{[2-(2,6-dioxopiperidin-3-yl)-1-oxo-2,3-dihydro-1H-isoindol-4-yl]oxy}acetyl)piperazin-1-yl]ethyl}-3-{3-[(6-fluoronaphthalen-1-yl)oxy]propyl}-7-(1,3,5-trimethyl-1H-pyrazol-4-yl)-1H-indole-2-carboxylic acid] | – | > 10000 nM | Average pIC50 by molecule DMS 114 (DMS 114 cells): ≥6.5 |
| – | < 10 nM | Cc1nn(C)c(C)c1-c1c(Cl)ccc2c(CCCOc3cccc4cc(F)ccc34)c(C(=O)O)n(CCN3CCN(C(=O)Cn4c(C)nc5c(C(=O)NC6CCC(=O)NC6=O)cccc54)CC3)c12 (stereo not shown) [Compound 268, 6-chloro-1-{2-[4-(2-{4-[(2,6-dioxopiperidin-3-yl)carbamoyl]-2-methyl-1H-1,3-benzodiazol-1-yl}acetyl)piperazin-1-yl]ethyl}-3-{3-[(6-fluoronaphthalen-1-yl)oxy]propyl}-7-(1,3,5-trimethyl-1H-pyrazol-4-yl)-1H-indole-2-carboxylic acid] | – | – | – |
